Positions of bridges follow the written chain, without caps; N, C: chain ends. Non-standard residues stand in square brackets, D forms with d. Residues, ends and D or L forms follow the SMILES beside them. *: point of attachment. Malonyl(2,2-Me2,histaminyl) = CC(C)(C(=O)NCCc1cnc[nH]1)C(=O)*; Ala(1H-tetrazol-5-yl) = N[C@@H](Cc1nnn[nH]1)C(=O)O; αMePhe(2-F) = C[C@](N)(Cc1ccccc1F)C(=O)O; αMeL = CC(C)C[C@](C)(N)C(=O)O; Nle = CCCC[C@H](N)C(=O)O; Aib = CC(C)(N)C(=O)O
Assays:
[1] = Stability of peptides in Fasted-State Simulated Gastric Fluid (FaSSGF); assay type: in vitro ADME; conditions: FaSSGF with 0.1 mg/ml pepsin; t=30 mins, 37° C., pH 1.6, 0.1 mg/ml pepsin
Method: Stability of peptides was tested in Fasted-State Simulated gastric Fluid (FaSSGF) prepared according to manufacturer's protocol (Biorelevant, art. no. FFF01). […] FaSSGF was pre-incubated for 15 min at 37° C. and spiked with test and reference item working solutions. Experiments were conducted in duplicate in a non-serial manner. The total incubation volume per replicate was 150 μl. […] All samples and calibration standards (prepared in FaSSGF) were precipitated by addition of 300 μl precipitant (ACN / 2% acetic acid / 0.2% HFBA, (precipitation regent, PR)) containing internal standards (ISTD) to 150 μl sample. After incubation for 1 h at room temperature all samples were centrifuged for 10 min at 2,200×g (room temperature).

human GLP1 receptor = target: T1, human GLP1 receptor (Homo sapiens, UniProt P43220); experiment: cAMP accumulation assay, functional agonism of human GLP1 receptor; assay type: cell-based; conditions: HEK cells infected with human GLP1 receptor BacMam virus, HTRF cAMP; for Emax: HEK293, read-out: Human GLP-1R agonist cAMP Emax; for EC50: read-out: Human GLP-1R agonist cAMP pEC50 (converted)
T1 construct: expressed in transfected cells; host or cells: HEK cells, BacMam virus transduction
In short: (§1)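 HEK cells transduced for 24 hours with human GLP2 or GLP1 receptor BacMam virus were frozen, then stimulated with agonist in HBSS containing 0.5 mM IBMX. After 45 min at 37° C, cAMP was measured by HTRF after adding detection reagents in lysis buffer.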

human GLP2 receptor = target: T2, human GLP2 receptor (Homo sapiens, UniProt O95838); experiment: cAMP accumulation assay, functional agonism of human GLP2 receptor; assay type: cell-based; conditions: HEK cells infected with human GLP2 receptor BacMam virus, HTRF cAMP; for Emax: HEK293, read-out: Human GLP-2R agonist cAMP Emax; for EC50: read-out: Human GLP-2R agonist cAMP pEC50 (converted)
T2 construct: expressed in transfected cells; host or cells: HEK cells, BacMam virus transduction
T2 sequence (O95838 1-553): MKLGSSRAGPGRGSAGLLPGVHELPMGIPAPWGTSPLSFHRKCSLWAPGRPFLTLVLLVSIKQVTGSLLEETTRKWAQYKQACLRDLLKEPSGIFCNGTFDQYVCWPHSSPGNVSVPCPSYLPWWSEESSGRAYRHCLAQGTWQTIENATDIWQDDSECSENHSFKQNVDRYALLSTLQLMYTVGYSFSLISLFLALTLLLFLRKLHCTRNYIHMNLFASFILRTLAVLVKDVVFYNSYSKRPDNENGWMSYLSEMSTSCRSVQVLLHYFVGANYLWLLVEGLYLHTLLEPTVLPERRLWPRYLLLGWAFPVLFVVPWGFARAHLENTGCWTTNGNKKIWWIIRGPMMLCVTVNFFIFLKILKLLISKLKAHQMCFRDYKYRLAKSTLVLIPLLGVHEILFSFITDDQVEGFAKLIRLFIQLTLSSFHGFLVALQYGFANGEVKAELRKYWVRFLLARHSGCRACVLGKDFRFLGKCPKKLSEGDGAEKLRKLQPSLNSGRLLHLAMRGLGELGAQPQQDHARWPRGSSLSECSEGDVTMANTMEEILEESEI
In short: as §1

[2] = Stability of peptides in Fasted-State Simulated Intestinal Fluid (FaSSIF); assay type: in vitro ADME; conditions: FaSSIF with 10 mg/ml pancreatin, 37° C.; for remaining at 0.5 h: t=30 mins, pH 6.5, 10 mg/ml pancreatin
mouse GLP2 receptor = target: T3, mouse GLP2 receptor (Mus musculus, UniProt Q5IXF8); experiment: cAMP accumulation assay, functional agonism of mouse GLP2 receptor; assay type: cell-based; conditions: HEK cells transiently transfected with mouse GLP2 receptor, HTRF cAMP; for Emax: HEK293, read-out: Mouse GLP-2R agonist cAMP Emax; for EC50: read-out: Mouse GLP-2R agonist cAMP pEC50 (converted)
T3 construct: expressed in transfected cells; host or cells: HEK cells, transient transfection with GeneJuice
T3 sequence (Q5IXF8 1-512): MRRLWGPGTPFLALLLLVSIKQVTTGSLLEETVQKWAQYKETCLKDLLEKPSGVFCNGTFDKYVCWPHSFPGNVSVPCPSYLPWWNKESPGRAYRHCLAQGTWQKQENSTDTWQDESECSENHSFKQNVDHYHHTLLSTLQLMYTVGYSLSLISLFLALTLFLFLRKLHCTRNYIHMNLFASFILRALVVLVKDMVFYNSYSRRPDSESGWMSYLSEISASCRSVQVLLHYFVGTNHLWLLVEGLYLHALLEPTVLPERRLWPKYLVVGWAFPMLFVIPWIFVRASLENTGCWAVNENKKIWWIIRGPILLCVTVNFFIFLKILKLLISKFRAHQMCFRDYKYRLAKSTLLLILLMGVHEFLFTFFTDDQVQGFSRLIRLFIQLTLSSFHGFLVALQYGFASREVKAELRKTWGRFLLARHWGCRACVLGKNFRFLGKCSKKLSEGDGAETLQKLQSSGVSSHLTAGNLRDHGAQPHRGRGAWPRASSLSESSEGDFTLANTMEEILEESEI
In short: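 Transiently transfected HEK cells (24 h, frozen, 8000/well) in HBSS with 0.5 mM IBMX exposed to compound concentration series for 45 min at 37 °C. cAMP measured by HTRF after lysis and 1 h at RT; pEC50 from four-parameter concentration-response fit.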

[3] = Stability of peptides in rat intestinal fluid (ratIF); conditions: Sprague Dawley, undiluted rat small intestinal fluid (ratIF)
Method: Peptides were tested for in vitro stability in native intestinal fluid obtained from the rat small intestine. Rat Sprague Dawley Small Intestinal Fluid (ratIF) (from Biotrend art. no. RSD-SIF-MI-30ML, undiluted) was preincubated for 15 min at 37° C. and spiked with test and reference item working solutions. Experiments were conducted in duplicate in a non-serial manner. The total incubation volume per replicate was 150 μl. […] All samples and calibration standards (prepared in ratIF) were precipitated by addition of 300 μl precipitant (ACN / 2% acetic acid / 0.2% HFBA, (precipitation regent, PR)) containing internal standards (ISTD) to 150 μl sample. After incubation for 1 h at room temperature all samples were centrifuged for 10 min at 2,200×g (room temperature).

T1 sequence (P43220 24-463): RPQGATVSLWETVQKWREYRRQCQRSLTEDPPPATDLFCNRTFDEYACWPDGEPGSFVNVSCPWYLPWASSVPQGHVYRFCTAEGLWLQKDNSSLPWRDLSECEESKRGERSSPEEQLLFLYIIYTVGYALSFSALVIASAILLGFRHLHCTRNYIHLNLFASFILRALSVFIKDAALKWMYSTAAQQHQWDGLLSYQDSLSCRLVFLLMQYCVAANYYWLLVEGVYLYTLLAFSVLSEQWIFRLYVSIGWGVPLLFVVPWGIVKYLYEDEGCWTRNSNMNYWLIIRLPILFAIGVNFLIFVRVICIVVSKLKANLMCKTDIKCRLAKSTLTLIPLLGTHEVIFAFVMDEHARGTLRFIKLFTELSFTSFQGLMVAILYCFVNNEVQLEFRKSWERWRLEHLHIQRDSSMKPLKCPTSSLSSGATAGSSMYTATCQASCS

| Compound | remaining at 0.5 h [1] | Emax (human GLP1 receptor) | Emax (human GLP2 receptor) | remaining at 0.5 h [2] | Emax (mouse GLP2 receptor) | EC50 (human GLP1 receptor) | EC50 (human GLP2 receptor) | remaining at 0.5 h [3] | EC50 (mouse GLP2 receptor) | remaining at 0.25 h [3] | remaining at 0.25 h ([2]; FaSSIF pH 6.5 with 10 mg/ml pancreatin, t = 15 mins) |
| --- | --- | --- | --- | --- | --- | --- | --- | --- | --- | --- | --- |
| CCCC[C@H](NC(=O)[C@H](CCC(=O)O)NC(=O)[C@@H]1CC(=O)NCCCC[C@H](NC(=O)[C@H](CC(=O)O)NC(=O)C(C)(C)NC(=O)[C@@H](N)Cc2c[nH]cn2)C(=O)N[C@@H](CO)C(=O)N[C@@H](Cc2ccccc2)C(=O)N[C@@H](CO)C(=O)N1)C(=O)N[C@H](Cc1ccccc1)C(=O)N[C@H](C(=O)N[C@@](C)(CC(C)C)C(=O)N[C@@H](CC(C)C)C(=O)N[C@@H](CC(=O)O)C(=O)N[C@H]1CCC(=O)NCCCC[C@@H](C(=O)N[C@@H](CC(=O)O)C(=O)N[C@@H](Cc2ccccc2)C(=O)N[C@H](C(=O)N[C@H]2CCC(=O)NCCCC[C@@H](C(=O)N[C@H](C(=O)N[C@@H](CCCCN)C(=O)N3CCC[C@H]3C(N)=O)[C@@H](C)O)NC(=O)[C@H]([C@@H](C)CC)NC(=O)[C@H](CC(C)C)NC(=O)[C@H](Cc3c[nH]c4ccccc34)NC2=O)[C@@H](C)CC)NC(=O)[C@H](C)NC(=O)[C@H](C)NC(=O)[C@H](CCCCN)NC1=O)[C@@H](C)O [Example 30] (H-H[Aib]DKSFSDE[Nle][dF]T[αMeL]LDEKAAKDFIEWLIKTKP-NH2; lactam 4-8, 16-20, 24-28; N-terminus and C-terminus assumed) | 100% | 96.7% | 104% | 51.1% | 101% |  |  |  |  |  |  |
| CCCC[C@H](NC(=O)[C@H](CCC(=O)O)NC(=O)[C@@H]1CC(=O)NCCCC[C@H](NC(=O)[C@H](CC(=O)O)NC(=O)C(C)(C)NC(=O)[C@@H](N)Cc2c[nH]cn2)C(=O)N[C@@H](CO)C(=O)N[C@@](C)(Cc2ccccc2F)C(=O)N[C@@H](CO)C(=O)N1)C(=O)N[C@H](Cc1ccccc1)C(=O)N[C@H](C(=O)N[C@@](C)(CC(C)C)C(=O)N[C@@H](CC(C)C)C(=O)N[C@@H](CC(=O)O)C(=O)N[C@H]1CCC(=O)NCCCC[C@@H](C(=O)N[C@@H](CC(=O)O)C(=O)N[C@@H](Cc2ccccc2)C(=O)N[C@H](C(=O)N[C@H]2CCC(=O)NCCCC[C@@H](C(=O)N[C@H](C(=O)N[C@@H](CCCCN)C(N)=O)[C@@H](C)O)NC(=O)[C@H]([C@@H](C)CC)NC(=O)[C@H](CC(C)C)NC(=O)[C@H](Cc3c[nH]c4ccccc34)NC2=O)[C@@H](C)CC)NC(=O)[C@H](C)NC(=O)[C@H](C)NC(=O)[C@H](CCCCN)NC1=O)[C@@H](C)O [Example 31] (H-H[Aib]DKS[αMePhe(2-F)]SDE[Nle][dF]T[αMeL]LDEKAAKDFIEWLIKTK-NH2; lactam 4-8, 16-20, 24-28) |  | 98.3% | 103% |  | 102% | 0.0158 nM | 0.0398 nM | 24.8% | 0.158 nM |  |  |
| CCCC[C@H](NC(=O)[C@H](CCC(=O)O)NC(=O)[C@H](CC(=O)O)NC(=O)[C@H](CO)NC(=O)[C@H](Cc1ccccc1)NC(=O)[C@H](CO)NC(=O)CNC(=O)[C@H](CC(=O)O)NC(=O)C(C)(C)NC(=O)[C@@H](N)Cc1c[nH]cn1)C(=O)N[C@H]1CC(=O)NCCCC[C@@H](C(=O)N[C@@H](CC(C)C)C(=O)N[C@@H](CCCCN)C(=O)N[C@@H](C)C(=O)N[C@@H](C)C(=O)N[C@@H](CCCCN)C(=O)N[C@@H](CC(=O)O)C(=O)N[C@@H](Cc2ccccc2)C(=O)N[C@H](C(=O)N[C@@H](CC(N)=O)C(=O)N[C@@H](Cc2c[nH]c3ccccc23)C(=O)N[C@@H](CC(C)C)C(=O)N[C@H](C(=O)N[C@@H](CCC(N)=O)C(=O)N[C@H]2CCCCNC(=O)CC[C@@H](C(N)=O)NC(=O)[C@H]([C@@H](C)O)NC(=O)[C@H]([C@@H](C)CC)NC(=O)[C@H](CCCCN)NC2=O)[C@@H](C)CC)[C@@H](C)CC)NC(=O)[C@H](CC(C)C)NC(=O)[C@H]([C@@H](C)CC)NC(=O)[C@H]([C@@H](C)O)NC1=O [Example 112] (H-H[Aib]DGSFSDE[Nle]DTILKLKAAKDFINWLIQKKITE-NH2; lactam 11-15, 29-33 (inferred); C-terminus assumed) |  | 92.6% | 102% |  | 99.7% | 10 nM | 0.158 nM |  | 6.31 nM | 24.5% | 40.7% |

Further lines, results first:

| remaining at 0.5 h [1] | Emax (human GLP1 receptor) | Emax (human GLP2 receptor) | remaining at 0.5 h [2] | Emax (mouse GLP2 receptor) | EC50 (human GLP1 receptor) | EC50 (human GLP2 receptor) | remaining at 0.5 h [3] | EC50 (mouse GLP2 receptor) | remaining at 0.25 h [3] | remaining at 0.25 h ([2]; FaSSIF pH 6.5 with 10 mg/ml pancreatin, t = 15 mins) | Compound |
| --- | --- | --- | --- | --- | --- | --- | --- | --- | --- | --- | --- |
| 100% | 97.8% | 105% | 95.3% | 101% | 0.126 nM | 0.0251 nM |  | 10 nM |  |  | CCCC[C@H](NC(=O)[C@H](CCC(=O)O)NC(=O)[C@@H]1CC(=O)NCCCC[C@H](NC(=O)[C@H](CC(=O)O)NC(=O)C(C)(C)NC(=O)[C@@H](N)Cc2c[nH]cn2)C(=O)N[C@@H](CO)C(=O)N[C@@H](Cc2ccccc2)C(=O)N[C@@H](CO)C(=O)N1)C(=O)N[C@H](Cc1ccccc1)C(=O)N[C@H](C(=O)N[C@@](C)(CC(C)C)C(=O)N[C@@H](CC(C)C)C(=O)N[C@@H](CC(=O)O)C(=O)N[C@H]1CCC(=O)NCCCC[C@@H](C(=O)N[C@@H](CC(=O)O)C(=O)N[C@@H](Cc2ccccc2)C(=O)N[C@H](C(=O)N[C@H]2CCC(=O)NCCCC[C@@H](C(=O)N[C@H]3CCC(=O)NCCCC[C@@H](C(N)=O)NC(=O)[C@H]([C@@H](C)O)NC(=O)[C@H]([C@@H](C)CC)NC(=O)[C@H](CCCCN)NC3=O)NC(=O)[C@H]([C@@H](C)CC)NC(=O)[C@H](CC(C)C)NC(=O)[C@H](Cc3c[nH]c4ccccc34)NC2=O)[C@@H](C)CC)NC(=O)[C@H](C)NC(=O)[C@H](C)NC(=O)[C@H](CCCCN)NC1=O)[C@@H](C)O [Example 46] (H-H[Aib]DKSFSDE[Nle][dF]T[αMeL]LDEKAAKDFIEWLIKEKITK-NH2; lactam 4-8, 16-20, 24-28, 29-33 (inferred); C-terminus assumed) |
|  | 98.2% | 103% |  | 89.7% | 0.0251 nM | 0.0251 nM | 73.8% | 2 nM |  |  | CCCC[C@H](NC(=O)[C@H](CCC(=O)O)NC(=O)[C@@H]1CC(=O)NCCCC[C@H](NC(=O)[C@H](Cc2nn[nH]n2)NC(=O)C(C)(C)C(=O)NCCc2c[nH]cn2)C(=O)N[C@@H](CO)C(=O)N[C@@](C)(Cc2ccccc2F)C(=O)N[C@@H](CO)C(=O)N1)C(=O)N[C@H](Cc1ccccc1)C(=O)N[C@H](C(=O)N[C@@](C)(CC(C)C)C(=O)N[C@@H](CC(C)C)C(=O)N[C@@H](CC(=O)O)C(=O)N[C@H]1CCC(=O)NCCCC[C@@H](C(=O)N[C@@H](CC(=O)O)C(=O)N[C@@H](Cc2ccccc2)C(=O)N[C@H](C(=O)N[C@H]2CCC(=O)NCCCC[C@@H](C(=O)N[C@H]3CCC(=O)NCCCC[C@@H](C(N)=O)NC(=O)[C@H]([C@@H](C)O)NC(=O)[C@H]([C@@H](C)CC)NC(=O)[C@H](CCCCN)NC3=O)NC(=O)[C@H]([C@@H](C)CC)NC(=O)[C@H](CC(C)C)NC(=O)[C@H](Cc3c[nH]c4ccccc34)NC2=O)[C@@H](C)CC)NC(=O)[C@H](C)NC(=O)[C@H](C)NC(=O)[C@H](CCCCN)NC1=O)[C@@H](C)O [Example 71] ({Malonyl(2,2-Me2,histaminyl)}-[Ala(1H-tetrazol-5-yl)]KS[αMePhe(2-F)]SDE[Nle][dF]T[αMeL]LDEKAAKDFIEWLIKEKITK-NH2; lactam 2-6, 14-18, 22-26, 27-31 (inferred); C-terminus assumed) |

— patent US20240270809A1, “ORAL GLP RECEPTOR AGONISTS” (priority 2020, published 2024)
